Reference: patent US20230114728A1 (Venatorx Pharmaceuticals, Inc., priority 2019, published 2023)
In brackets after ≈: the same amount, converted by molar mass.

Experiments:
P. aeruginosa PBP3 = biological target: T1, P. aeruginosa PBP3 (Pseudomonas aeruginosa, UniProt G3XD46); assay: Bocillin-FL fluorescence polarization competition binding assay, P. aeruginosa PBP3; conditions: fluorescence polarization competition binding assay using Bocillin-FL
T1 construct: made in house
Summary of the method: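 Inhibitor competition with Bocillin-FL for P. aeruginosa PBP3 was followed by fluorescence polarization on a Cytation3 (BioTek) reader, using g-factor 0.96, 490 nm excitation and 520 nm emission. The enzyme was at 0.75 μM and the probe at 0.1 μM in Hepes/NaCl/glycerol buffer, 80 μl per well. FP was recorded immediately after probe addition for up to 60 minutes. Potency was expressed as EC50, the concentration that reduces bound probe by 50%.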

[1] = Bocillin-FL fluorescence polarization competition binding assay, A. baumannii PBP3; conditions: fluorescence polarization competition binding assay using Bocillin-FL; column 3; read-out: 4. baumannii PBP1a Potency
Summary of the method: (§1)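 A. baumannii PBP2 (2.5 μM) and PBP3 (0.2 μM) were run in 25 mM Tris pH 8.0 buffer with Tween 20; E. coli PBP3 (1.5 μM) and N. gonorrhoeae PBP2 ([…]) in 50 mM Hepes pH 8.0 buffer.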

P. aeruginosa CDC-0110 = assay: Broth microdilution MIC in iron-depleted CAMHB (IDM); format: cell-based; conditions: Pseudomonas aeruginosa, CDC0110, read-out: Minimum Inhibitory Concentration, P. aeruginosa CDC-0110
Summary of the method: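 MIC is the lowest well showing no visible growth after 16-20 h at 37 °C, starting from 2-8×10^5 CFU/mL in 2-fold serial compound dilutions. Medium: cation-adjusted Mueller Hinton broth iron-depleted with Chelex 100, supplemented back with Ca, Mg and Zn, pH 7.3; CLSI protocol.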

[2] = system: A. baumannii CDC-0036 OXA-65, and OXA-24; assay: as above; format: cell-based; conditions: Acinetobacter baumannii, read-out: Minimum Inhibitory Concentration, CDC-0036
Summary of the method: (§2)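 CLSI broth microdilution in iron-depleted CAMHB (Chelex 100-treated, Ca, Mg and 10 μM Zn re-added, pH 7.3). Inoculum was 2-8×10^5 CFU/mL from 3-5 h IDM cultures. Plates were incubated at 37° C for 20-24 h (Acinetobacter) or 16-20 h (Pseudomonas), and MIC was read visually as the lowest concentration without growth.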

[3] = system: P. aeruginosa (ΔmexAB-oprM); assay: as above; format: cell-based; conditions: Pseudomonas aeruginosa, read-out: Minimum Inhibitory Concentration, P. aeruginosa ΔmexAB-OprM
Summary of the method: as §2

[4] = system: A. baumannii CDC-0033 producing NDM-1, and OXA-94; assay: as above; format: cell-based; conditions: Acinetobacter baumannii, read-out: Minimum Inhibitory Concentration, CDC-0033
Summary of the method: as §2

N. gonorrhoeae PBP2 = biological target: T2, N. gonorrhoeae PBP2 (Neisseria gonorrhoeae, UniProt P08149); assay: Bocillin-FL fluorescence polarization competition binding assay, N. gonorrhoeae PBP2; conditions: fluorescence polarization competition binding assay using Bocillin-FL; read-out: N. gonorrhoeae PBP2 Potency
T2 construct: made in house
Summary of the method: as §1

T1 sequence (G3XD46 whole entry): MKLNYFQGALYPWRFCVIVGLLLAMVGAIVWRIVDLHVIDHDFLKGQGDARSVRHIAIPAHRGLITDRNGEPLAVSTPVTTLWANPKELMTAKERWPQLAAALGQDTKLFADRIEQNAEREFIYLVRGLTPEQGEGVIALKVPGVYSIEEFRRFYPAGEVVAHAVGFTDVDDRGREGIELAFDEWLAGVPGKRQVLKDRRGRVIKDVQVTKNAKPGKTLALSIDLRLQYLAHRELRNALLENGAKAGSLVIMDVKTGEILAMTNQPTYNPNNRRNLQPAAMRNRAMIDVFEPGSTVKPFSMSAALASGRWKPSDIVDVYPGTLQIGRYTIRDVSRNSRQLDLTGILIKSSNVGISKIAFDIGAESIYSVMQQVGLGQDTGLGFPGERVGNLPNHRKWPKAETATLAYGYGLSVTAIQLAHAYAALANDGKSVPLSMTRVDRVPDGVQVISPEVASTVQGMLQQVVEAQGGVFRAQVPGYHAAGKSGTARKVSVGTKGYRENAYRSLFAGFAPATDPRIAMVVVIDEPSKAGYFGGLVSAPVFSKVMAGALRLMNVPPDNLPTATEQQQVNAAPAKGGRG
T2 sequence (P08149 whole entry): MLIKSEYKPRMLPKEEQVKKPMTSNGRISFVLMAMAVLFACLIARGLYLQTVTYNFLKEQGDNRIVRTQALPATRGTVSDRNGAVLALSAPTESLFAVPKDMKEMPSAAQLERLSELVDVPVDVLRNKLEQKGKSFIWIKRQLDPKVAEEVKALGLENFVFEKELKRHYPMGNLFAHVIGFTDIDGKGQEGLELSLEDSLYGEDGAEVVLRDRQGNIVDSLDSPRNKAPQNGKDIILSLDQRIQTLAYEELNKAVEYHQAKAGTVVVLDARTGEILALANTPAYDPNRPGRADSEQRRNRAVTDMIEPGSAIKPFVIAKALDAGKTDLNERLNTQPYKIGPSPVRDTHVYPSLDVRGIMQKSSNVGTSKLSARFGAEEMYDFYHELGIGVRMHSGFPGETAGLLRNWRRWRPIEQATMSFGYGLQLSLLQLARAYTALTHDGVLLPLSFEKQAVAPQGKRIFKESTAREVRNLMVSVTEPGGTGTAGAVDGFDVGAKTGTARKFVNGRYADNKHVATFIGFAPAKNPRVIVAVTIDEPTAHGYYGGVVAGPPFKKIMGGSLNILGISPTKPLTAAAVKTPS

| SMILES | P. aeruginosa PBP3 Potency (P. aeruginosa PBP3) | EC50 [1] | MIC (P. aeruginosa CDC-0110) | MIC [2] | MIC [3] | MIC [4] | EC50 (N. gonorrhoeae PBP2) |
| --- | --- | --- | --- | --- | --- | --- | --- |
| NCCN1CCN(C(=O)N[C@H](C(=O)N[C@H]2Cc3cccc(C(=O)O)c3OB2O)c2c(F)cc(O)cc2F)C(=O)C1=O (single isomer, unassigned) [Example 110] | B (B represents a potency between 30 μM and 500 μM inclusive) | > 100 µM |  |  |  |  |  |
| NS(=O)(=O)c1cc(O)cc(C(NC(=O)N2CCN(Cc3c(F)cc(O)c(O)c3Cl)C(=O)C2=O)C(=O)N[C@H]2Cc3cccc(C(=O)O)c3OB2O)c1 (stereo partly drawn) [Example 132, (3R)-3-(2-(4-(2-chloro-6-fluoro-3,4-dihydroxybenzyl)-2,3-dioxopiperazine-1-carboxamido)-2-(3-hydroxy-5-sulfamoylphenyl)acetamido)-2-hydroxy-3,4-dihydro-2H-benzo[e][1,2]oxaborinine-8-carboxylic acid] | D (D represents a potency <10 μM) | < 10 µM | 2 to 4 µg/mL (≈ 2.67 to 5.33 µM) | > 128 µg/mL | 0.25 µg/mL (≈ 0.333 µM) | > 128 µg/mL |  |
| NC1(CN2CCN(C(=O)N[C@@H](C(=O)N[C@H]3Cc4ccc(F)c(C(=O)O)c4OB3O)c3cc(F)c(O)c(O)c3Cl)C(=O)C2=O)CC1 (single isomer, unassigned) [Example 133] | D (D represents a potency <10 μM) | < 10 µM | 0.5 to 1 µg/mL (≈ 0.767 to 1.53 µM) | 2 to 4 µg/mL (≈ 3.07 to 6.14 µM) | 0.25 µg/mL (≈ 0.384 µM) | 8 to 16 µg/mL (≈ 12.3 to 24.5 µM) |  |
| CCN1CCN(C(=O)NC(C(=O)N[C@H]2Cc3cccc(C(=O)O)c3OB2O)c2c(F)cc(N)cc2F)C(=O)C1=O (stereo partly drawn) [Example 181, (3R)-3-(2-(4-amino-2,6-difluorophenyl)-2-(4-ethyl-2,3-dioxopiperazine-1-carboxamido)acetamido)-2-hydroxy-3,4-dihydro-2H-benzo[e][1,2]oxaborinine-8-carboxylic acid] |  | > 100 µM |  |  |  |  | > 100 µM |
| NCCCN1CCN(C(=O)N[C@@H](C(=O)N[C@H]2Cc3ccc(F)c(C(=O)O)c3OB2O)c2cc(F)c(O)c(O)c2Cl)C(=O)C1=O (single isomer, unassigned) [Example 180] | D (D represents a potency <10 μM) | > 100 µM | 0.25 µg/mL (≈ 0.391 µM) | 8 to 16 µg/mL (≈ 12.5 to 25 µM) | 0.25 µg/mL (≈ 0.391 µM) | 8 to 16 µg/mL (≈ 12.5 to 25 µM) | > 100 µM |
| CCN1CCN(C(=O)N[C@@H](C(=O)N[C@H]2Cc3cccc(C(=O)O)c3OB2O)c2ccc(C(=O)O)cc2)C(=O)C1=O (single isomer, unassigned) [Example 124] | D (D represents a potency <10 μM) | < 10 µM |  |  |  |  | < 10 µM |
| CCN1CCN(C(=O)N[C@@H](C(=O)N[C@H]2Cc3cccc(C(=O)O)c3OB2O)c2ccc(C(=O)O)c(Cl)c2)C(=O)C1=O (single isomer, unassigned) [Example 154] | D (D represents a potency <10 μM) |  |  |  |  |  | < 10 µM |
| CCN1CCN(C(=O)N[C@H](C(=O)N[C@H]2Cc3ccc(F)c(C(=O)O)c3OB2O)c2c(F)cc(O)c(O)c2Cl)C(=O)C1=O (single isomer, unassigned) [Example 125] | A (A represents a potency of >500 μM) | > 100 µM | > 128 µg/mL | > 128 µg/mL | > 128 µg/mL | > 128 µg/mL |  |
| NS(=O)(=O)Nc1cccc(C(NC(=O)N2CCN(Cc3c(F)cc(O)c(O)c3Cl)C(=O)C2=O)C(=O)N[C@H]2Cc3cccc(C(=O)O)c3OB2O)c1 (stereo partly drawn) [Example 131, (3R)-3-(2-(4-(2-chloro-6-fluoro-3,4-dihydroxybenzyl)-2,3-dioxopiperazine-1-carboxamido)-2-(3-(sulfamoylamino)phenyl)acetamido)-2-hydroxy-3,4-dihydro-2H-benzo[e][1,2]oxaborinine-8-carboxylic acid] | D (D represents a potency <10 μM) | < 10 µM | 2 to 4 µg/mL (≈ 2.67 to 5.34 µM) | > 128 µg/mL | 0.25 µg/mL (≈ 0.334 µM) | > 128 µg/mL |  |
| CCN1CCN(C(=O)NC(C(=O)N[C@H]2Cc3cccc(C(=O)O)c3OB2O)c2cccc(C(=O)O)c2)C(=O)C1=O (stereo partly drawn) [Example 113, (3R)-3-(2-(3-carboxyphenyl)-2-(4-ethyl-2,3-dioxopiperazine-1-carboxamido)acetamido)-2-hydroxy-3,4-dihydro-2H-benzo[e][1,2]oxaborinine-8-carboxylic acid] | D (D represents a potency <10 μM) |  |  |  |  |  | < 10 µM |
| NCCN1CCN(C(=O)N[C@@H](C(=O)N[C@H]2Cc3cccc(C(=O)O)c3OB2O)c2cc(F)c(O)c(F)c2F)C(=O)C1=O (single isomer, unassigned) [Example 168] | D (D represents a potency <10 μM) |  |  |  |  |  | < 10 µM |
| CCN1CCN(C(=O)N[C@@H](C(=O)N[C@H]2Cc3cccc(C(=O)O)c3OB2O)c2ccc(C(=O)O)c(F)c2)C(=O)C1=O (single isomer, unassigned) [Example 146] | D (D represents a potency <10 μM) |  |  |  |  |  | < 10 µM |
| CCN1CCN(C(=O)NC(C(=O)N[C@H]2Cc3cccc(C(=O)O)c3OB2O)c2c(F)c(F)c(O)c(F)c2F)C(=O)C1=O (stereo partly drawn) [Example 175, (3R)-3-(2-(4-ethyl-2,3-dioxopiperazine-1-carboxamido)-2-(2,3,5,6-tetrafluoro-4-hydroxyphenyl)acetamido)-2-hydroxy-3,4-dihydro-2H-benzo[e][1,2]oxaborinine-8-carboxylic acid] | D (D represents a potency <10 μM) |  |  |  |  |  | < 10 µM |
| CCN1CCN(C(=O)N[C@H](C(=O)N[C@H]2Cc3cccc(C(=O)O)c3OB2O)c2ccc(C(=O)O)c(F)c2F)C(=O)C1=O (single isomer, unassigned) [Example 139] | D (D represents a potency <10 μM) |  |  |  |  |  | < 10 µM |
| CCN1CCN(C(=O)NC(C(=O)N[C@H]2Cc3cccc(C(=O)O)c3OB2O)c2c(F)cc(NS(N)(=O)=O)cc2F)C(=O)C1=O (stereo partly drawn) [Example 176, (3R)-3-(2-(2,6-difluoro-4-(sulfamoylamino)phenyl)-2-(4-ethyl-2,3-dioxopiperazine-1-carboxamido)acetamido)-2-hydroxy-3,4-dihydro-2H-benzo[e][1,2]oxaborinine-8-carboxylic acid] | D (D represents a potency <10 μM) |  |  |  |  |  | < 10 µM |
| NCCN1CCN(C(=O)NC(C(=O)N[C@H]2Cc3cccc(C(=O)O)c3OB2O)c2c(F)cc(NS(N)(=O)=O)cc2F)C(=O)C1=O (stereo partly drawn) [Example 177, (3R)-3-(2-(4-(2-aminoethyl)-2,3-dioxopiperazine-1-carboxamido)-2-(2,6-difluoro-4-(sulfamoylamino)phenyl)acetamido)-2-hydroxy-3,4-dihydro-2H-benzo[e][1,2]oxaborinine-8-carboxylic acid] | D (D represents a potency <10 μM) |  |  |  |  |  | 10 to 30 µM |
| NC1(CN2CCN(C(=O)N[C@@H](C(=O)N[C@H]3Cc4ccc(F)c(C(=O)O)c4OB3O)c3c(F)cc(O)c(O)c3Cl)C(=O)C2=O)CC1 (single isomer, unassigned) [Example 134] | D (D represents a potency <10 μM) | < 10 µM | 2 to 4 µg/mL (≈ 3.07 to 6.14 µM) | 8 to 16 µg/mL (≈ 12.3 to 24.5 µM) | 0.25 µg/mL (≈ 0.384 µM) | 32 to 64 µg/mL (≈ 49.1 to 98.2 µM) |  |
| CCN1CCN(C(=O)N[C@H](C(=O)N[C@H]2Cc3cccc(C(=O)O)c3OB2O)c2ccc(C(=O)O)c(F)c2)C(=O)C1=O (single isomer, unassigned) [Example 147] | D (D represents a potency <10 μM) |  |  |  |  |  | < 10 µM |
| NCCN1CCN(C(=O)NC(C(=O)N[C@H]2Cc3cccc(C(=O)O)c3OB2O)c2c(F)c(F)c(O)c(F)c2F)C(=O)C1=O (stereo partly drawn) [Example 174, (3R)-3-(2-(4-(2-aminoethyl)-2,3-dioxopiperazine-1-carboxamido)-2-(2,3,5,6-tetrafluoro-4-hydroxyphenyl)acetamido)-2-hydroxy-3,4-dihydro-2H-benzo[e][1,2]oxaborinine-8-carboxylic acid] | D (D represents a potency <10 μM) |  |  |  |  |  | < 10 µM |
